Results on 27 compounds are retold here after PubChem BioAssay AID652265 (Sanford-Burnham Center for Chemical Genomics, 2013).

The source made the active and inactive calls.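 Rule for the calls: active = compounds whose half-maximal inhibitory concentration in the worm GFP to RFP ratio test is 5 micromolar or lower; inactive = the rest.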

The assay has as its system C. elegans VP596 Pgst-4::GFP/RFP ratio, acrylamide, 24 h. Kind of assay: potency of C. elegans SKN-1 blocker analogs – whole organism, GFP/RFP fluorescence ratio, round 2, SAR follow-up (AID 652265).
What is called IC50 is the midpoint of a concentration-inhibition curve. Regarding `CCOc1cc(CNC2CCCC2)cc(Cl)c1OCc1ccc(C#N)cc1`, the IC50 is 400 nM.
In the case of `CCOc1cc(CN(C)C2CCCC2)cc(Cl)c1OCc1ccc(Cl)cc1`, the half-maximal inhibitory concentration (IC50) was 423 nM.
As to `COc1cc(CNC2CCCC2)cc(Cl)c1OCc1ccc(Cl)cc1`, the IC50 was 329 nM.
To `COc1cc(CNC2CCCC2)cc(F)c1OCc1ccc(Cl)cc1` belongs 1220 nM; to `CCOc1cc(CN2CCCC2)cc(Cl)c1OCc1ccc(Cl)cc1`, 3960 nM; to `CCOc1cc(CNC)cc(Cl)c1OCc1ccc(Cl)cc1`, > 64000 nM (inactive).
Take `CCOc1cc(CNC2CCCC2)cc(Cl)c1OCc1ccc(Br)cc1`: the IC50 was 425 nM.
With `C#CCNCc1cc(Cl)c(OCc2ccc(Cl)cc2)c(OCC)c1`, the IC50 was 8140 nM (inactive).
For the compound `CCOc1cc(CN2CCCC2)cc(Cl)c1OCc1ccc(F)cc1`, the IC50 is 21400 nM (inactive).
Take `CCOc1cc(CN2CCOCC2)cc(Cl)c1OCc1ccc(F)cc1`: the IC50 is 8890 nM (inactive).
For `CCOc1cc(CN2CCN(C)CC2)cc(Cl)c1OCc1ccc(Cl)cc1`, the IC50 was 3420 nM.
For `CCOc1cc(CNC2CCCC2)cc(Cl)c1OCc1ccc(Cl)cc1F`, the IC50 is 863 nM.
In the case of `CCOc1cc(CN2CCOCC2)cc(Cl)c1OCc1ccc(Cl)cc1`, the IC50 was 1740 nM.
To `CCOc1cc(CNC2CC2)cc(Cl)c1OCc1ccc(Cl)cc1` belongs 512 nM.
`CCOc1cc(CN(C(C)=O)C2CCCC2)cc(Cl)c1OCc1ccc(Cl)cc1`: the IC50 is > 64000 nM (inactive).
`CCOc1cc(CN2CCN(C)CC2)cc(Cl)c1OCc1ccc(F)cc1`: the IC50 was 6010 nM (inactive).
Regarding `CCOc1cc(CN2CCCCC2)cc(Cl)c1OCc1ccc(F)cc1`, the IC50 is 432 nM.
To `C=CCNCc1cc(Cl)c(OCc2ccc(Cl)cc2)c(OCC)c1` belongs 12300 nM (inactive).
As for `Cc1cc(CNC2CCCC2)cc(C)c1OCc1ccc(Cl)cc1`, the IC50 is 1140 nM.
On to `CCCNCc1cc(Cl)c(OCc2ccc(Cl)cc2)c(OCC)c1`, for which the IC50 is 8680 nM (inactive).
Take `Clc1ccc(COc2c(Cl)cc(CNC3CCCC3)cc2Cl)cc1`: the IC50 was 928 nM.
For `CCOc1cc(CNC2CC2)cc(Cl)c1OCc1ccc(C#N)cc1`, the IC50 is 1560 nM.
Take `CCOc1cc(CN2CCCCC2)cc(Cl)c1OCc1ccc(Cl)cc1`: the 50% inhibitory concentration (IC50) is 495 nM.
On to `CCOc1cc(CNCC2CC2)cc(Cl)c1OCc1ccc(Cl)cc1`, for which the IC50 is 6730 nM (inactive).
`CCOc1cc(CNC2CC2)cc(Cl)c1OCc1ccc(Cl)cc1F`: the IC50 was 516 nM.
Regarding `CCOc1cc(CNC2CC2)cc(Cl)c1OCc1ccc(Br)cc1`, the IC50 was 227 nM.
To `COc1cc(CNC2CCCC2)cc(Br)c1OCc1ccc(Cl)cc1` belongs 771 nM.
